Experimental data published in paper PMC6368365, “Didehydro-Cortistatin A Inhibits HIV-1 by Specifically Binding to the Unstructured Basic Region of Tat” (mBio, 2019).

Test system: recombinant Tat transactivation of HIV-1 5′ LTR-luciferase
Assay: Transactivation assay with recombinant Tat in HeLa-CD4-LTR-Luc cells
Format: cell-based
Source text: The production of functional recombinant HIV-1 Tat in Escherichia coli is not trivial as the proper folding of Tat is extremely important for activity, and when expressed by itself, Tat agglomerates mostly because of oxidation of the cysteine residues in the cysteine region. Tat can also adhere to different surfaces and anionic polymers via its charged and hydrophobic residues ([21], [22]). We produced and purified recombinant HIV Tat HXB3 (residues 1 to 89) with a 6×His tag in the C-terminus in E. coli. For this, we have partially optimized the arginine codon usage and changed the rare AGA into codon CGT at arginine positions 7, 53, 56, and 87 of Tat (Fig. 1A). […] After Tat purification using nickel affinity chromatography followed by size exclusion filtration, Tat protein size was analyzed by SDS-PAGE followed by Coomassie blue staining (Fig. 1B). The specificity of the bands was confirmed by Western blotting using anti-Tat serum and anti-His antibody (Fig. 1B). The purity of Tat was further verified by size exclusion chromatography and high-performance liquid chromatography (HPLC) (Fig. 1C and D). We confirmed the activity of Tat by performing transactivation assays in both HeLa-CD4 cells stably expressing the HIV-1 5′ long terminal repeat (LTR) promoter driving luciferase expression (HeLa-CD4-LTR-Luc cells) ([10]) and the OM10.1 cell line model of HIV-1 latency ([23]) (Fig. 1E and F; see Fig. S2A and S2B in the supplemental material). In HeLa-CD4-LTR-Luc cells, the activity of our purified Tat was similar to the published activity of Tat obtained from the AIDS Reagent Program ([10]). In addition, denatured Tat and Tat mutated in the basic domain (Tat Mut [arginine residues mutated to alanine residues]), used as negative controls, were unable to transactivate the reporter (Fig. S2A).
FIG 1 Purity and activity of the monomeric His-tagged Tat HXB3 and analysis of its direct binding to dCA. […] Statistical significance was determined using one-way ANOVA with post hoc Tukey’s test. ns, not significant; ***, P < 0.0001; *, P < 0.01. […]

Compound | inhibition of recombinant Tat transactivation (luciferase)
C[C@@](Cc1ccc(O)c(O)c1)(NN)C(=O)O.O [SCM, S-(−)-carbidopamonohydrate, reference compound] | no inhibitory activity
CN(C)C1CC23CCC4(O2)C(=CCC2(C)C(c5ccc6ccncc6c5)=CCC24)C=C3C(O)C1O (stereo not drawn) [dCA, didehydro-cortistatin A] | blocked Tat transcriptional activity in a dose-dependent manner
Cc1nnc(C(=O)NC(C)(C)c2nc(C(=O)NCc3ccc(F)cc3)c(O)c(=O)n2C)o1 [raltegravir, reference compound] | no inhibitory activity
